Assay [1] has as its target T1, peripheral type CCK receptors in rat pancreas (Rattus norvegicus, UniProt P30551).
T1 construct: Pancreas was obtained from male Sprague-Dawley rats; from tissue; host or cells: pancreas membranes of male Sprague-Dawley rats
T1 sequence (P30551 1-444): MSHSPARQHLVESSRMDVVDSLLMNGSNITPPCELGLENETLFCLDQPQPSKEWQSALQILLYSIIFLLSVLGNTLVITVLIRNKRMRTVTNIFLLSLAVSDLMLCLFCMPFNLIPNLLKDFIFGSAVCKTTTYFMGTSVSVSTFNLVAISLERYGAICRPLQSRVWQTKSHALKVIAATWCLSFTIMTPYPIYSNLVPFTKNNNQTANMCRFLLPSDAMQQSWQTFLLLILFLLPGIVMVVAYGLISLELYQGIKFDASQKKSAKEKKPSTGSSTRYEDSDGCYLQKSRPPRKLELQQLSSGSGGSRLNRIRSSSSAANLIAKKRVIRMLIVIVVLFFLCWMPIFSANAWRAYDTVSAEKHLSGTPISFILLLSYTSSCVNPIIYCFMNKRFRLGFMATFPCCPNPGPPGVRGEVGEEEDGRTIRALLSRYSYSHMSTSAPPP
Put plainly: Binding to peripheral type CCK receptors in rat pancreas (3H-L-364,718). The settings on record: for inhibition at 10 µM: read-out: Pancreas Percent Inhibition; for IC50: rat pancreas. The protocol: Binding to peripheral type CCK receptors in rat pancreas was done according to the method of Chang et al. (Mol. Pharmacol. 30: 212-217, 1986) using ^3 H-L364, 718. Pancreas was obtained from male Sprague-Dawley rats, 150-200 g, after decapitation, and dissected free from adipose and connective tissue. The tissue was homogenized in 30 volumes of 50 mM Tris buffer, pH 7.4 and centrifuged at 40,000 g for 10 min. The tissue pellet was washed by resuspension and centrifugation as described above. The final pellet was suspended in 500 volumes of assay buffer (50 mM Tris buffer, pH 7.4, 5 mM MgCl2, 0.14 mg/ml bacitracin, and 5 mM dithiothreitol) to give a protein concentration of 30-60 μg/200 μl . Reagent volumes for the assay were the same as those used for CCK binding to brain membranes. Tritium labeled L-364,718 (Dupont NEN, NET-971) was used as the ligand at a concentration of 0.4-0.6 nM. The samples were incubated 1 hour at room temperature and then filtered as described for the CCK-brain receptor. Scintillation cocktail was added to the filters which were counted for radioactivity using a Micromedic Taurus automatic liquid scintillation counter.
Compound samples were prepared and IC-50 values were determined as described for the CCK-brain experiments. Non-specific binding was that amount left bound to the filters after adding 100 nM L-364,718.

For a further assay, the target named is T2, brain CCK receptor (Mus musculus, UniProt P56481).
T2 construct: from tissue; host or cells: forebrain membranes of male CF-1 mice
T2 sequence (P56481 1-453): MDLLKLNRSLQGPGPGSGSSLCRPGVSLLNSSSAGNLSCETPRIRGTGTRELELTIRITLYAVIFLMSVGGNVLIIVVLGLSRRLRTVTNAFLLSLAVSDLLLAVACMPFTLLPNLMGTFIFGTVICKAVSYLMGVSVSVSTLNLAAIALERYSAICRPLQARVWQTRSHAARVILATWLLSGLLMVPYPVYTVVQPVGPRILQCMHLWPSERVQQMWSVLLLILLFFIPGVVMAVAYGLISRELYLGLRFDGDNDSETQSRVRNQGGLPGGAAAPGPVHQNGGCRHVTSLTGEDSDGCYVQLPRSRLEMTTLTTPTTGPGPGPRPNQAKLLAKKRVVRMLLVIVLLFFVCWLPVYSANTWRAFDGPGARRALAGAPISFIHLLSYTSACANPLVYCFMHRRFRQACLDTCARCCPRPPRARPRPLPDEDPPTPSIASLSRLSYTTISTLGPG
Put plainly: CCK receptor binding, mouse brain membranes (125I-CCK-8 sulfate). The settings on record: for inhibition at 1 µM / inhibition at 10 µM: read-out: Brain Percent Inhibition; for IC50: mouse brain membranes, read-out: Brain IC50. The protocol:
Brain CCK receptor binding was performed using mouse brain membranes according to the method of Chang and Lotti (Proc. Natl. Acad. Sci. 83: 4923-4926, 1986). Male CF-1 mice, 23-25 g were sacrificed by cervical dislocation, the forebrain removed and placed in ice cold 50 mM Tris buffer, pH 7.4. The tissue was homogenized in 100 volumes of the Tris buffer with a Brinkman Polytron or Tekmar Tissumizer and then centrifuged at 40,000 g for 10 min. Pellets were resuspended in Tris buffer, centrifuged as above and then resuspended in 100 volumes of assay buffer, pH 6.5 (20 mM N-2-hydroxyethyl-piperazine-N'-2-ethane sulfonic acid (HEPES), 1 mM ethylene glycol his (2-aminoethyl ether-N,N,N',N'-tetraacetic acid) (EGTA), 5 mM MgCl2, 130 mM NaCl, and 0.25 mg/ml bacitracin). The binding assay consisted of 50 μL of compound (or buffer for total binding), 50 μL of ^125 I-CCK-8 sulfate (20 pM) (Amersham IM- 159), 200 μL of assay buffer and 200 μL of homogenate (80-120 μg protein). The samples were incubated at room temperature (25°) for 2 hours, and they were then filtered through GF/B glass fiber filters (soaked in wash buffer for 2 hours before use) using a 48 well Brandel cell harvester designed for receptor binding. The filters were washed twice with 3 ml of 50 mM Tris buffer, pH 7.4, containing 0.01% BSA and then counted for radioactivity in plastic tubes with a Micromedic 10/600 automatic gamma counter.
Compounds were dissolved in dimethyl sulfoxide (DMSO) at a concentration of 10 mM and then further diluted with assay buffer. The concentration of DMSO in the incubation was 0.1% or less and had no effect on the assay at that level. IC-50 values of displacement curves were determined using 7 concentrations of compound and were calculated using the ALLFIT computer program of DeLean, Munson and Rodbard (Am. J. Physiol. 235: E97-E102, 1978). Non-specific binding was determined as the displacement of the radioligand by 100 nM CCK-8 sulfate.

A word on the inhibition: it is how much of the control response was suppressed. For orientation: IC50 means the concentration that inhibits the measured activity by half.

The structures appear in SMILES notation.

For the compound `O=C1NN(C(=O)Nc2cccc3ccccc23)[C@@H](c2ccccc2)[C@@H]1c1ccccc1` (relative stereo) [Example 90], the inhibition at 10 µM in assay [1] came to 63%. Also, at brain CCK receptor, the inhibition at 1 µM is 45%.

`O=C1NN(C(=O)Cc2ccc(Cl)c(Cl)c2)[C@@H](c2ccccc2)[C@@H]1c1ccccc1` (relative stereo) [Example 78]: the inhibition at 10 µM in assay [1] was determined as 49%. For the same compound, at brain CCK receptor, the IC50 was 1.8 µM.

With `COc1ccc(C2C(=O)NN(C(=O)Nc3ccc(Br)cc3)C2c2ccccc2)cc1` (centres unmarked) [Example 128], the inhibition at 10 µM in assay [1] amounted to 39%. Moreover, the IC50 on brain CCK receptor was 0.49 µM.

For `O=C1NN(C(=O)NCc2cccc(Cl)c2)[C@@H](c2ccccc2)[C@@H]1c1ccccc1` (relative stereo) [Example 99], the inhibition at 10 µM in assay [1] was 86%. For the same compound, the IC50 at brain CCK receptor came out at 3.3 µM.

Regarding `CN1C(=O)[C@H](c2ccccc2)[C@@H](c2ccccc2)N1C(=O)Nc1ccc(C(F)(F)F)cc1` (relative stereo) [Example 67], the inhibition at 10 µM at brain CCK receptor was found to be 46%.

`CN(C)c1ccc(C2C(c3ccccc3)C(=O)NN2C(=O)Nc2ccc(C(F)(F)F)cc2)cc1` (centres unmarked) [Example 113]: in assay [1], the inhibition at 10 µM came to 21%. On brain CCK receptor, the inhibition at 1 µM was 25%.

`O=C1NN(C(=O)Nc2cccc(Cl)c2Cl)[C@H](c2ccccc2)[C@H]1c1ccccc1` (relative stereo) [Example 54]: in assay [1], the inhibition at 10 µM was 53%. On brain CCK receptor, the half-maximal inhibitory concentration (IC50) is 1.15 µM.

Consider `CC(C)Oc1ccc(NC(=O)N2NC(=O)[C@@H](c3ccccc3)[C@@H]2c2ccccc2)cc1` (relative stereo) [Example 35], for which the inhibition at 10 µM in assay [1] was 48%. Also, at brain CCK receptor, the half-inhibitory concentration (IC50) was 0.39 µM.

With `O=C(O)CN1C(=O)[C@@H](c2ccccc2)[C@H](c2ccccc2)N1C(=O)Nc1ccc(Br)cc1` (relative stereo) [Example 12 (N--), 1-[(4-Bromophenyl)aminocarbonyl]-2-carboxymethyl-4,5-diphenyl-3-pyrazolidinone], the inhibition at 10 µM in assay [1] was 55%. Besides, the IC50 on brain CCK receptor is 1.9 µM.

Take `CCCCC1C(c2ccccc2)C(=O)NN1C(=O)Nc1ccc(C(F)(F)F)cc1` (centres unmarked) [Example 71]: the inhibition at 10 µM in assay [1] was 39%. Besides, the IC50 on brain CCK receptor turned out to be 1.2 µM.

On to `CC(C)Oc1cccc(NC(=O)N2NC(=O)[C@H](c3ccccc3)[C@H]2c2ccccc2)c1` (relative stereo) [Example 43], for which the inhibition at 10 µM in assay [1] amounted to 24%. Besides, the 50% inhibitory concentration (IC50) at brain CCK receptor was determined as 0.23 µM.

`O=C1NN(C(=O)NC2CCCCC2)[C@@H](c2ccccc2)[C@@H]1c1ccccc1` (relative stereo) [Example 95]: the inhibition at 10 µM was 18% in assay [1] and 55% at brain CCK receptor.

On to `O=C1NN(C(=S)Nc2ccc(Cl)c(C(F)(F)F)c2)[C@H](c2ccccc2)[C@H]1c1ccccc1` (relative stereo) [Example 63], for which the results for the half-inhibitory concentration (IC50) (in assay [1]; at brain CCK receptor) were 0.075 µM and 0.51 µM, respectively.

Turning to `O=C1NN(C(=S)Nc2cccc(C(F)(F)F)c2)[C@H](c2ccccc2)[C@H]1c1ccccc1` (relative stereo) [Example 61], the inhibition at 10 µM in assay [1] came out at 78%; at brain CCK receptor, 56%.

For `CN(C(=O)N1NC(=O)[C@@H](c2ccccc2)[C@@H]1c1ccccc1)c1ccc(Cl)cc1` (relative stereo) [Example 19], the figures for the inhibition at 10 µM (in assay [1]; on brain CCK receptor) were 36% and 68%, respectively.

On to `O=C1NN(c2nc3ccccc3s2)[C@@H](c2ccccc2)[C@@H]1c1ccccc1` (relative stereo) [Example 84], for which the inhibition at 10 µM in assay [1] is 26%; on brain CCK receptor it was 70%.

In the case of `O=C1NN(C(=O)Nc2ccncc2)[C@@H](c2ccccc2)[C@@H]1c1ccccc1` (relative stereo) [Example 89], the figures for the inhibition at 10 µM (in assay [1]; on brain CCK receptor) were 21% and 34%, respectively.

On to `O=C1NN(c2nc3c(Cl)c(Cl)ccc3s2)[C@@H](c2ccccc2)[C@@H]1c1ccccc1` (relative stereo) [Example 86], for which the inhibition at 10 µM in assay [1] turned out to be 58%.

Consider `O=C1NN(C(=S)NCc2ccc(Cl)c(Cl)c2)[C@@H](c2ccccc2)[C@@H]1c1ccccc1` (relative stereo) [Example 138], for which, in assay [1], the half-maximal inhibitory concentration (IC50) was 0.069 µM.

With `CCCCNC(=O)N1NC(=O)[C@H](c2ccccc2)[C@H]1c1ccccc1` (relative stereo) [Example 94], at brain CCK receptor, the inhibition at 10 µM was 50%.

In turn, `O=C1NN(C(=S)Nc2ccc(Cl)c(C(F)(F)F)c2)[C@@H](c2ccccc2)[C@@H]1c1ccccc1` (single isomer, unassigned) [Example 143, (-)-trans-1-[(4-Chloro-3-trifluoromethylphenyl)-aminothiocarbonyl]-4,5-diphenyl-3-pyrazolidinone] showed an IC50 in assay [1] of 0.81 µM.

As for `O=C(Nc1cccc(C(F)(F)F)c1)N1N[C@@H](c2ccccc2)[C@H](c2ccccc2)C1=O` (relative stereo) [Example 82], at brain CCK receptor, the inhibition at 10 µM is 23%.

In assay [1], `O=C1NN(C(=S)Nc2cnc3ccccc3c2)[C@@H](c2ccccc2)[C@@H]1c1ccccc1` (relative stereo) [Example 137] returned an IC50 of 0.032 µM.

`O=C1NN(C(=O)Nc2ccc3ccccc3c2)[C@@H](c2ccccc2)[C@@H]1c1ccccc1` (relative stereo) [Example 91]: the inhibition at 10 µM in assay [1] is 94%.

For `O=C1NN(C(=O)Nc2ccc(Br)cc2)[C@@H](c2ccccc2)[C@@H]1c1ccccc1` (single isomer, unassigned) [Example 140, (-)-trans-1-[(4-Bromophenyl)aminocarbonyl]-4,5-diphenyl-3-pyrazolidinone], at brain CCK receptor, the IC50 came to 0.37 µM.

The compound `O=C1NN(C(=S)Nc2ccc(Cl)c(C(F)(F)F)c2)[C@@H](c2ccccc2)[C@@H]1c1ccccc1` (single isomer, unassigned) [Example 142, (+)-trans-1-[(4-Chloro-3-trifluoromethylphenyl)-aminothiocarbonyl]-4,5-diphenyl-3-pyrazolidinone] showed a 50% inhibitory concentration (IC50) in assay [1] of 0.017 µM.

As for `CN(Cc1ccccc1)C(=O)N1NC(=O)[C@@H](c2ccccc2)[C@@H]1c1ccccc1` (relative stereo) [Example 97], on brain CCK receptor, the inhibition at 10 µM came out at 42%.

For the compound `COC1=NN(C(=O)Nc2ccc(C(F)(F)F)cc2)[C@@H](c2ccccc2)[C@@H]1c1ccccc1` (relative stereo) [Example 13, 1-[(4-Trifluoromethylphenyl)aminocarbonyl]-3-methoxy-4,5diphenyl-2-pyrazoline], the inhibition at 10 µM at brain CCK receptor came out at 67%.
